# Results as given in ChEMBL document CHEMBL2150879, “Novel indolethylbenzamides for the treatment of tauopathies: patent highlight” (ACS Med Chem Lett, 2012).
# Assay: Inhibition of Tau P301L mutant-mediated cytotoxicity in human M17 cells by LDH assay
# Type: cell-based
row,SMILES,EC50
1,O=C(NCCc1c[nH]c2ccc(Cl)cc12)c1cccc(Cc2ccccc2)c1,78 nM
2,O=C(NCCc1c[nH]c2ccc(F)cc12)c1ccc(Cn2ccnc2)cc1,486 nM
3,O=C(NCCc1c[nH]c2ccc(Cl)cc12)c1cccc(Nc2ccccc2)c1,94 nM
4,N#Cc1ccc(Cc2ccc(C(=O)NCCc3c[nH]c4ccc(Cl)cc34)cc2)cc1,16 nM
5,N#Cc1cccc(Cc2ccc(C(=O)NCCc3c[nH]c4ccc(Cl)cc34)cc2)c1,14 nM
6,O=C(NCCc1c[nH]c2ccc(Cl)cc12)c1ccc(Cc2cccc(Cl)c2)cc1,7 nM
7,O=C(NCCc1c[nH]c2ccc(Cl)cc12)c1ccc(Cc2cccc(F)c2)cc1,13 nM
8,COc1ccc(Cc2ccc(C(=O)NCCc3c[nH]c4ccc(Cl)cc34)cc2)cc1,147 nM
9,O=C(NCCc1c[nH]c2ccc(Cl)cc12)c1cccc(Cc2cncc(F)c2)c1,90 nM
